Test results reported in article PMC3880596 (Journal of medicinal chemistry, 2013).

Target: T1, recombinant BoNT/A LC (Clostridium botulinum, UniProt P0DPI0)
Assay: biochemical
Details: read-out: BoNT/A LC inhibition

T1 sequence (P0DPI0 2-448 limits assumed): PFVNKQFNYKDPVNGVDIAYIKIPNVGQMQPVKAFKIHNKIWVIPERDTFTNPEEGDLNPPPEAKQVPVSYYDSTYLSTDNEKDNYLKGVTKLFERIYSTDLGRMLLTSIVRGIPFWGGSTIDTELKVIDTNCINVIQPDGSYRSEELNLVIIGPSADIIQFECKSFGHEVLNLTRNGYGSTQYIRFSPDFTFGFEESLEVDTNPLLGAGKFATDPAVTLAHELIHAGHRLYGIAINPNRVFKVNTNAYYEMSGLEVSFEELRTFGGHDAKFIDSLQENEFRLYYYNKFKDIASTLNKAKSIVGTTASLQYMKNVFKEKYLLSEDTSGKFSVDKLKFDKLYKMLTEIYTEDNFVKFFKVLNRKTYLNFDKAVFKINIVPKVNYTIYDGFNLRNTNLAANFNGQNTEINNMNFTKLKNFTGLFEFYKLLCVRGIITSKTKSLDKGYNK

| SMILES | inhibition at 20 µM [%] |
| --- | --- |
| Clc1ccc2c(NCCNCc3ccccc3)ccnc2c1 [compound 6, N-Benzyl-N'-(7-chloroquinolin-4-yl)ethane-1,2-diamine] | > 50 |
| Clc1ccc2c(NCCCNCc3ccccc3)ccnc2c1 [compound 7, N-Benzyl-N'-(7-chloroquinolin-4-yl)propane-1,3-diamine] | > 50 |

Test system: P. falciparum Indochina W2 clone
Assay: microbe, parasite or virus in culture
Assay type: cell-based, Plasmodium falciparum
Details: not given

| SMILES | selectivity index (IC50), SI = ICtox/ICP.f. activity, W2 |
| --- | --- |
| Clc1ccc2c(NCCNCc3ccc(Br)cc3)ccnc2c1 [compound 14, N-(4-Bromobenzyl)-N'-(7-chloroquinolin-4-yl)ethane-1,2-diamine] | 695/1606/660 |
| COc1ccc(CNCCNc2ccnc3cc(Cl)ccc23)cc1 [compound 10, N-(7-Chloroquinolin-4-yl)-N'-(4-methoxybenzyl)ethane-1,2-diamine] | 406/1806/362 |
| Clc1ccc2c(NCCNCc3cccnc3)ccnc2c1 [compound 18, N-(7-Chloroquinolin-4-yl)-N'-(pyridin-3-ylmethyl)ethane-1,2-diamine] | 426/1796/882 |
| Clc1ccc2c(NCCCNCc3cccnc3)ccnc2c1 [compound 19, N-(7-Chloroquinolin-4-yl)-N'-(pyridin-3-ylmethyl)propane-1,3-diamine] | 90/ /317 |
| CC(C)(C)c1ccc(CNCCCNc2ccnc3cc(Cl)ccc23)cc1 [compound 9, N-(4-Tert-butylbenzyl)-N'-(7-chloroquinolin-4-yl)propane-1,3-diamine] | 45/100/68 |
| Clc1ccc2c(NCCCNCc3ccccc3)ccnc2c1 [compound 7, N-Benzyl-N'-(7-chloroquinolin-4-yl)propane-1,3-diamine] | 56/169/73 |
| COc1ccncc1CNCCNc1ccnc2cc(Cl)ccc12 [compound 22, N-(7-Chloroquinolin-4-yl)-N'-[(4-methoxypyridin-3-yl)methyl]ethane-1,2-diamine] | 435/4000/588 |
| Fc1ccc(CNCCCNc2ccnc3cc(Cl)ccc23)cc1 [compound 13, N-(7-Chloroquinolin-4-yl)-N'-(4-fluorobenzyl)propane-1,3-diamine] | 110/415/185 |
| Clc1ccc2c(NCCCNCc3cnccc3Cl)ccnc2c1 [compound 21, N-[(4-Chloropyridin-3-yl)methyl]-N'-(7-chloroquinolin-4-yl)propane-1,3-diamine] | 52/146/121 |
| Clc1ccc2c(NCCNCc3cnccc3Cl)ccnc2c1 [compound 20, N-[(4-Chloropyridin-3-yl)methyl]-N'-(7-chloroquinolin-4-yl)ethane-1,2-diamine] | 46/102/78 |
| Fc1ccc(CNCCNc2ccnc3cc(Cl)ccc23)cc1 [compound 12, N-(7-Chloroquinolin-4-yl)-N'-(4-fluorobenzyl)ethane-1,2-diamine] | 350/608/291 |
| CC(C)(C)c1ccc(CNCCNc2ccnc3cc(Cl)ccc23)cc1 [compound 8, N-(4-Tert-butylbenzyl)-N'-(7-chloroquinolin-4-yl)ethane-1,2-diamine] | 245/429/419 |
| COc1ccncc1CNCCCNc1ccnc2cc(Cl)ccc12 [compound 23, N-(7-Chloroquinolin-4-yl)-N'-[(4-methoxypyridin-3-yl)methyl]propane-1,3-diamine] | 57/1040/93 |
| COc1ccc(CNCCCNc2ccnc3cc(Cl)ccc23)cc1 [compound 11, N-(7-Chloroquinolin-4-yl)-N'-(4-methoxybenzyl)propane-1,3-diamine] | 86/778/95 |
| Clc1ccc2c(NCCCNCc3ccncc3)ccnc2c1 [compound 17, N-(7-Chloroquinolin-4-yl)-N'-(pyridin-4-ylmethyl)propane-1,3-diamine] | 176/4146/469 |
| Clc1ccc2c(NCCNCc3ccncc3)ccnc2c1 [compound 16, N-(7-Chloroquinolin-4-yl)-N'-(pyridin-4-ylmethyl)ethane-1,2-diamine] | 409/2528/752 |

Same assay, conditions: Plasmodium falciparum, W2, read-out: antimalarial activity IC50, CQR W2

| SMILES | IC50 [nM] |
| --- | --- |
| CCN(CC)CCCC(C)Nc1ccnc2cc(Cl)ccc12.O=P(O)(O)O.O=P(O)(O)O (centres unmarked) [CQ, chloroquine, reference compound] | 634 |

Same assay, conditions: Plasmodium falciparum, W2, read-out: antimalarial activity IC90, CQR W2

| SMILES | IC90 [nM] |
| --- | --- |
| Clc1ccc2c(NCCNCc3ccccc3)ccnc2c1 [compound 6, N-Benzyl-N'-(7-chloroquinolin-4-yl)ethane-1,2-diamine] | 14.1 |

Test system: P. falciparum African D6 clone
Assay: microbe, parasite or virus in culture
Assay type: cell-based, Plasmodium falciparum
Details: not given

| SMILES | selectivity index (IC50), SI = ICtox/ICP.f. activity, D6 |
| --- | --- |
| Clc1ccc2c(NCCNCc3ccc(Br)cc3)ccnc2c1 [compound 14, N-(4-Bromobenzyl)-N'-(7-chloroquinolin-4-yl)ethane-1,2-diamine] | 695/1606/660 |
| COc1ccc(CNCCNc2ccnc3cc(Cl)ccc23)cc1 [compound 10, N-(7-Chloroquinolin-4-yl)-N'-(4-methoxybenzyl)ethane-1,2-diamine] | 406/1806/362 |
| Clc1ccc2c(NCCNCc3cccnc3)ccnc2c1 [compound 18, N-(7-Chloroquinolin-4-yl)-N'-(pyridin-3-ylmethyl)ethane-1,2-diamine] | 426/1796/882 |
| CC(C)(C)c1ccc(CNCCCNc2ccnc3cc(Cl)ccc23)cc1 [compound 9, N-(4-Tert-butylbenzyl)-N'-(7-chloroquinolin-4-yl)propane-1,3-diamine] | 45/100/68 |
| Clc1ccc2c(NCCCNCc3ccccc3)ccnc2c1 [compound 7, N-Benzyl-N'-(7-chloroquinolin-4-yl)propane-1,3-diamine] | 56/169/73 |
| COc1ccncc1CNCCNc1ccnc2cc(Cl)ccc12 [compound 22, N-(7-Chloroquinolin-4-yl)-N'-[(4-methoxypyridin-3-yl)methyl]ethane-1,2-diamine] | 435/4000/588 |
| Fc1ccc(CNCCCNc2ccnc3cc(Cl)ccc23)cc1 [compound 13, N-(7-Chloroquinolin-4-yl)-N'-(4-fluorobenzyl)propane-1,3-diamine] | 110/415/185 |
| Clc1ccc2c(NCCCNCc3cnccc3Cl)ccnc2c1 [compound 21, N-[(4-Chloropyridin-3-yl)methyl]-N'-(7-chloroquinolin-4-yl)propane-1,3-diamine] | 52/146/121 |
| Clc1ccc2c(NCCNCc3cnccc3Cl)ccnc2c1 [compound 20, N-[(4-Chloropyridin-3-yl)methyl]-N'-(7-chloroquinolin-4-yl)ethane-1,2-diamine] | 46/102/78 |
| Fc1ccc(CNCCNc2ccnc3cc(Cl)ccc23)cc1 [compound 12, N-(7-Chloroquinolin-4-yl)-N'-(4-fluorobenzyl)ethane-1,2-diamine] | 350/608/291 |
| CC(C)(C)c1ccc(CNCCNc2ccnc3cc(Cl)ccc23)cc1 [compound 8, N-(4-Tert-butylbenzyl)-N'-(7-chloroquinolin-4-yl)ethane-1,2-diamine] | 245/429/419 |
| COc1ccncc1CNCCCNc1ccnc2cc(Cl)ccc12 [compound 23, N-(7-Chloroquinolin-4-yl)-N'-[(4-methoxypyridin-3-yl)methyl]propane-1,3-diamine] | 57/1040/93 |
| COc1ccc(CNCCCNc2ccnc3cc(Cl)ccc23)cc1 [compound 11, N-(7-Chloroquinolin-4-yl)-N'-(4-methoxybenzyl)propane-1,3-diamine] | 86/778/95 |
| Clc1ccc2c(NCCCNCc3ccncc3)ccnc2c1 [compound 17, N-(7-Chloroquinolin-4-yl)-N'-(pyridin-4-ylmethyl)propane-1,3-diamine] | 176/4146/469 |
| Clc1ccc2c(NCCNCc3ccncc3)ccnc2c1 [compound 16, N-(7-Chloroquinolin-4-yl)-N'-(pyridin-4-ylmethyl)ethane-1,2-diamine] | 409/2528/752 |

Same assay, conditions: Plasmodium falciparum, D6, read-out: antimalarial activity IC50, CQS D6

| SMILES | IC50 [nM] |
| --- | --- |
| Clc1ccc2c(NCCNCc3ccccc3)ccnc2c1 [compound 6, N-Benzyl-N'-(7-chloroquinolin-4-yl)ethane-1,2-diamine] | < 9 |
| CCN(CC)CCCC(C)Nc1ccnc2cc(Cl)ccc12.O=P(O)(O)O.O=P(O)(O)O (centres unmarked) [CQ, chloroquine, reference compound] | 14.2 |
| COc1ccncc1CNCCCNc1ccnc2cc(Cl)ccc12 [compound 23, N-(7-Chloroquinolin-4-yl)-N'-[(4-methoxypyridin-3-yl)methyl]propane-1,3-diamine] | < 9 |
| COc1ccc(CNCCCNc2ccnc3cc(Cl)ccc23)cc1 [compound 11, N-(7-Chloroquinolin-4-yl)-N'-(4-methoxybenzyl)propane-1,3-diamine] | < 9 |
| Clc1ccc2c(NCCCNCc3ccncc3)ccnc2c1 [compound 17, N-(7-Chloroquinolin-4-yl)-N'-(pyridin-4-ylmethyl)propane-1,3-diamine] | < 9 |

Test system: P. falciparum multidrug resistant C235 strain (Thailand)
Assay: microbe, parasite or virus in culture
Assay type: cell-based, Plasmodium falciparum
Details: not given

| SMILES | selectivity index (IC50), SI = ICtox/ICP.f. activity, TM91C235 |
| --- | --- |
| Clc1ccc2c(NCCNCc3ccc(Br)cc3)ccnc2c1 [compound 14, N-(4-Bromobenzyl)-N'-(7-chloroquinolin-4-yl)ethane-1,2-diamine] | 695/1606/660 |
| COc1ccc(CNCCNc2ccnc3cc(Cl)ccc23)cc1 [compound 10, N-(7-Chloroquinolin-4-yl)-N'-(4-methoxybenzyl)ethane-1,2-diamine] | 406/1806/362 |
| Clc1ccc2c(NCCNCc3cccnc3)ccnc2c1 [compound 18, N-(7-Chloroquinolin-4-yl)-N'-(pyridin-3-ylmethyl)ethane-1,2-diamine] | 426/1796/882 |
| Clc1ccc2c(NCCCNCc3cccnc3)ccnc2c1 [compound 19, N-(7-Chloroquinolin-4-yl)-N'-(pyridin-3-ylmethyl)propane-1,3-diamine] | 90/ /317 |
| CC(C)(C)c1ccc(CNCCCNc2ccnc3cc(Cl)ccc23)cc1 [compound 9, N-(4-Tert-butylbenzyl)-N'-(7-chloroquinolin-4-yl)propane-1,3-diamine] | 45/100/68 |
| Clc1ccc2c(NCCCNCc3ccccc3)ccnc2c1 [compound 7, N-Benzyl-N'-(7-chloroquinolin-4-yl)propane-1,3-diamine] | 56/169/73 |
| COc1ccncc1CNCCNc1ccnc2cc(Cl)ccc12 [compound 22, N-(7-Chloroquinolin-4-yl)-N'-[(4-methoxypyridin-3-yl)methyl]ethane-1,2-diamine] | 435/4000/588 |
| Fc1ccc(CNCCCNc2ccnc3cc(Cl)ccc23)cc1 [compound 13, N-(7-Chloroquinolin-4-yl)-N'-(4-fluorobenzyl)propane-1,3-diamine] | 110/415/185 |
| Clc1ccc2c(NCCCNCc3cnccc3Cl)ccnc2c1 [compound 21, N-[(4-Chloropyridin-3-yl)methyl]-N'-(7-chloroquinolin-4-yl)propane-1,3-diamine] | 52/146/121 |
| Clc1ccc2c(NCCNCc3cnccc3Cl)ccnc2c1 [compound 20, N-[(4-Chloropyridin-3-yl)methyl]-N'-(7-chloroquinolin-4-yl)ethane-1,2-diamine] | 46/102/78 |
| Fc1ccc(CNCCNc2ccnc3cc(Cl)ccc23)cc1 [compound 12, N-(7-Chloroquinolin-4-yl)-N'-(4-fluorobenzyl)ethane-1,2-diamine] | 350/608/291 |
| CC(C)(C)c1ccc(CNCCNc2ccnc3cc(Cl)ccc23)cc1 [compound 8, N-(4-Tert-butylbenzyl)-N'-(7-chloroquinolin-4-yl)ethane-1,2-diamine] | 245/429/419 |
| COc1ccncc1CNCCCNc1ccnc2cc(Cl)ccc12 [compound 23, N-(7-Chloroquinolin-4-yl)-N'-[(4-methoxypyridin-3-yl)methyl]propane-1,3-diamine] | 57/1040/93 |
| COc1ccc(CNCCCNc2ccnc3cc(Cl)ccc23)cc1 [compound 11, N-(7-Chloroquinolin-4-yl)-N'-(4-methoxybenzyl)propane-1,3-diamine] | 86/778/95 |
| Clc1ccc2c(NCCCNCc3ccncc3)ccnc2c1 [compound 17, N-(7-Chloroquinolin-4-yl)-N'-(pyridin-4-ylmethyl)propane-1,3-diamine] | 176/4146/469 |
| Clc1ccc2c(NCCNCc3ccncc3)ccnc2c1 [compound 16, N-(7-Chloroquinolin-4-yl)-N'-(pyridin-4-ylmethyl)ethane-1,2-diamine] | 409/2528/752 |

Same assay, conditions: Plasmodium falciparum, read-out: antimalarial activity IC50, MDR TM91C235

| SMILES | IC50 [nM] |
| --- | --- |
| CCN(CC)CCCC(C)Nc1ccnc2cc(Cl)ccc12.O=P(O)(O)O.O=P(O)(O)O (centres unmarked) [CQ, chloroquine, reference compound] | 226 |

Target: T1, recombinant BoNT/A LC
Assay: not given
Details: cited from earlier work

| SMILES | BoNT/A LC inhibition (in words) | BoNT/A LC inhibition (in words), tested as fragments |
| --- | --- | --- |
| CCN(CC)CCCC(C)Nc1c2ccc(Cl)cc2nc2ccc(OC)cc12 (centres unmarked) [Quinacrine] | poor inhibitors |  |
| NCCNc1ccnc2cc(Cl)ccc12 [compound 4, N1-(7-chloroquinolin-4-yl)ethane-1,2-diamine] |  | poor BoNT/A LC inhibitors |
| C=C[C@H]1C[N@@]2CC[C@H]1C[C@@H]2[C@@H](O)c1ccnc2ccc(OC)cc12 [Quinidine] | poor inhibitors |  |
| C=C[C@H]1C[N@@]2CC[C@H]1C[C@H]2[C@H](O)c1ccnc2ccc(OC)cc12 [Quinine] | poor inhibitors |  |
| NCCCNc1ccnc2cc(Cl)ccc12 [compound 5, N1-(7-chloroquinolin-4-yl)propane-1,3-diamine] |  | poor BoNT/A LC inhibitors |
| CCN(CC)CCCC(C)Nc1ccnc2cc(Cl)ccc12.O=P(O)(O)O.O=P(O)(O)O (centres unmarked) [CQ, chloroquine, reference compound] | poor BoNT/A LC inhibitors |  |
| CCN(CC)Cc1cc(Nc2ccnc3cc(Cl)ccc23)ccc1O [Amodiaquine] | poor inhibitors |  |

Test system: not listed separately
Assay: in vitro
Details: human, microsomes, pH 7.4

| SMILES | half-life [h] |
| --- | --- |
| Clc1ccc2c(NCCNCc3ccc(Br)cc3)ccnc2c1 [compound 14, N-(4-Bromobenzyl)-N'-(7-chloroquinolin-4-yl)ethane-1,2-diamine] | ≥ 1 |
| Clc1ccc2c(NCCCNCc3cccnc3)ccnc2c1 [compound 19, N-(7-Chloroquinolin-4-yl)-N'-(pyridin-3-ylmethyl)propane-1,3-diamine] | ≥ 1 |
| Clc1ccc2c(NCCCNCc3ccccc3)ccnc2c1 [compound 7, N-Benzyl-N'-(7-chloroquinolin-4-yl)propane-1,3-diamine] | ≥ 1 |
| Clc1ccc2c(NCCCNCc3ccc(Br)cc3)ccnc2c1 [compound 15, N-(4-Bromobenzyl)-N'-(7-chloroquinolin-4-yl)propane-1,3-diamine] | ≥ 1 |
| COc1ccncc1CNCCCNc1ccnc2cc(Cl)ccc12 [compound 23, N-(7-Chloroquinolin-4-yl)-N'-[(4-methoxypyridin-3-yl)methyl]propane-1,3-diamine] | ≥ 1 |

Test system: not listed separately
Assay: in vitro
Details: mouse, microsomes, pH 7.4

| SMILES | half-life [h] |
| --- | --- |
| Clc1ccc2c(NCCNCc3ccc(Br)cc3)ccnc2c1 [compound 14, N-(4-Bromobenzyl)-N'-(7-chloroquinolin-4-yl)ethane-1,2-diamine] | ≥ 1 |
| Clc1ccc2c(NCCCNCc3cccnc3)ccnc2c1 [compound 19, N-(7-Chloroquinolin-4-yl)-N'-(pyridin-3-ylmethyl)propane-1,3-diamine] | ≥ 1 |
| Clc1ccc2c(NCCCNCc3ccccc3)ccnc2c1 [compound 7, N-Benzyl-N'-(7-chloroquinolin-4-yl)propane-1,3-diamine] | ≥ 1 |
| Clc1ccc2c(NCCCNCc3ccc(Br)cc3)ccnc2c1 [compound 15, N-(4-Bromobenzyl)-N'-(7-chloroquinolin-4-yl)propane-1,3-diamine] | ≥ 1 |
| COc1ccncc1CNCCCNc1ccnc2cc(Cl)ccc12 [compound 23, N-(7-Chloroquinolin-4-yl)-N'-[(4-methoxypyridin-3-yl)methyl]propane-1,3-diamine] | ≥ 1 |
